Results taken from patent publication US8703776B2 (Cymabay Therapeutics, Inc., priority 2011, dated 2014).

target: T1, human GPR131 (Homo sapiens, UniProt Q8TDU6); assay: Stimulation of cAMP in stable cell line expressing human GPR131 (FRET cAMP kit); assay type: cell-based; conditions: 0.5 h; 1.1 μM compound, relative to maximal stimulatory activity of lithocholic acid at 3.3 μM; 30 minutes at 37° C.; read-out: Percent Activity @ 1.1 μM (of 3.3 uM LCA) (%)
T1 construct: expressed in transfected cells
T1 sequence (Q8TDU6 1-330): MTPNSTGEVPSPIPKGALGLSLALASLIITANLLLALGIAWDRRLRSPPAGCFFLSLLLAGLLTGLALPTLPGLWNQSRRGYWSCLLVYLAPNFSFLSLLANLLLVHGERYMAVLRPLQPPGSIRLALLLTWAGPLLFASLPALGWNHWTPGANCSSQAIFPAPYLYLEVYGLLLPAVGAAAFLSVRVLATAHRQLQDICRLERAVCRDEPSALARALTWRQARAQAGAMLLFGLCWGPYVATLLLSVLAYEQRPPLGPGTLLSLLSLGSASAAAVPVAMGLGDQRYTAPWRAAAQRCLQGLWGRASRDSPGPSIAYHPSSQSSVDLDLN
Method: This assay was developed using a stable cell line expressing human GPR131.
To measure cAMP activity in response to GPR131 agonists, GPR131 cells suspended in DMEM/F12 medium with 1 mM IBMX were seeded in 384 well plates at 5000 cells per well. After incubating with test compounds at 37° C. for 30 minutes cAMP was measured using a fluorescene resonance energy transfer cAMP kit from Cis Bio (Bedford, Mass.) according to the manufacturer's instructions. Briefly, cells were lysed, and cAMP levels determined by competitive immunoassay using D2 labeled cAMP, and europium cryptate tagged anti cAMP antibody. Decreases in the FRET signal (fluorescence ratio (665 nm/620 […]) correspond to increases in intracellular cAMP levels.
Activities of test compounds in Table 1 below are expressed as % activity at 1.1 μM compound compared to the maximal stimulatory activity of lithocholic acid (LCA) (determined at 3.3 μM LCA)

activation at 1.1 µM [%]	SMILES
100	CN(Cc1ccncc1)C(=O)c1cnc(SCc2cccc(C(F)(F)F)c2F)n1-c1ccc(F)cc1 [Compound 610, 2-((2-Fluoro-3-(trifluoromethyl)benzyl)thio)-1-(4-fluorophenyl)-N-methyl-N-(pyridin-4-ylmethyl)-1H-imidazole-5-carboxamide]
99	CN(Cc1ccncc1)C(=O)c1cnc(SCc2cc(F)ccc2F)n1-c1ccc(F)cc1 [Compound 611, 2-((2,5-Difluorobenzyl)thio)-1-(4-fluorophenyl)-N-methyl-N-(pyridin-4-ylmethyl)-1H-imidazole-5-carboxamide]
100	COc1ccc(Cl)c(CSc2ncc(C(=O)N(C)Cc3ccncc3)n2-c2ccc(F)cc2)c1F [Compound 612, 2-((6-Chloro-2-fluoro-3-methoxybenzyl)thio)-1-(4-fluorophenyl)-N-methyl-N-(pyridin-4-ylmethyl)-1H-imidazole-5-carboxamide]
100	CN(Cc1ccncc1)C(=O)c1cnc(SCc2ccccc2F)n1-c1ccc(F)cc1 [Compound 613, 2-((2-Fluorobenzyl)thio)-1-(4-fluorophenyl)-N-methyl-N-(pyridin-4-ylmethyl)-1H-imidazole-5-carboxamide]
98	CN(Cc1ccncc1)C(=O)c1cnc(SCc2cc(F)ccc2Cl)n1-c1ccc(F)cc1 [Compound 615, 2-((2-Chloro-5-fluorobenzyl)thio)-1-(4-fluorophenyl)-N-methyl-N-(pyridin-4-ylmethyl)-1H-imidazole-5-carboxamide]
100	CN(Cc1ccncc1)C(=O)c1cnc(SCc2cc(Cl)ccc2F)n1-c1ccc(F)cc1 [Compound 616, 2-((5-Chloro-2-fluorobenzyl)thio)-1-(4-fluorophenyl)-N-methyl-N-(pyridin-4-ylmethyl)-1H-imidazole-5-carboxamide]
99	CN(Cc1ccncc1)C(=O)c1cnc(SCc2c(F)ccc(F)c2Cl)n1-c1ccc(F)cc1 [Compound 617, 2-((2-Chloro-3,6-difluorobenzyl)thio)-1-(4-fluorophenyl)-N-methyl-N-(pyridin-4-ylmethyl)-1H-imidazole-5-carboxamide]
94	CN(Cc1ccncc1)C(=O)c1cnc(SCc2cc(F)c(F)cc2Cl)n1-c1ccc(F)cc1 [Compound 618, 2-((2-Chloro-4,5-difluorobenzyl)thio)-1-(4-fluorophenyl)-N-methyl-N-(pyridin-4-ylmethyl)-1H-imidazole-5-carboxamide]
96	CN(Cc1ccncc1)C(=O)c1cnc(SCc2cc(F)cc(F)c2F)n1-c1ccc(F)cc1 [Compound 619, 1-(4-Fluorophenyl)-N-methyl-N-(pyridin-4-ylmethyl)-2-((2,3,5-trifluorobenzyl)thio)-1H-imidazole-5-carboxamide]
99	Cc1ccc(F)c(CSc2ncc(C(=O)N(C)Cc3ccncc3)n2-c2ccc(F)cc2)c1Cl [Compound 620, 2-((2-Chloro-6-fluoro-3-methylbenzyl)thio)-1-(4-fluorophenyl)-N-methyl-N-(pyridin-4-ylmethyl)-1H-imidazole-5-carboxamide]
98	CN(Cc1ccncc1)C(=O)c1cnc(SCc2cccc(C(F)(F)F)c2)n1-c1ccc(F)cc1 [Compound 621, 1-(4-Fluorophenyl)-N-methyl-N-(pyridin-4-ylmethyl)-2-((3-(trifluoromethyl)benzyl)thio)-1H-imidazole-5-carboxamide]
100	Cc1ccc(Cl)c(CSc2ncc(C(=O)N(C)Cc3ccncc3)n2-c2ccc(F)cc2)c1F [Compound 622, 2-((6-Chloro-2-fluoro-3-methylbenzyl)thio)-1-(4-fluorophenyl)-N-methyl-N-(pyridin-4-ylmethyl)-1H-imidazole-5-carboxamide]
100	CCN(Cc1ccncc1)C(=O)c1cnc(SCc2c(Cl)ccc(OC)c2F)n1-c1ccc(F)cc1 [Compound 626, 2-((6-Chloro-2-fluoro-3-methoxybenzyl)thio)-N-ethyl-1-(4-fluorophenyl)-N-(pyridin-4-ylmethyl)-1H-imidazole-5-carboxamide]
100	CCN(Cc1ccncc1)C(=O)c1cnc(SCc2c(Cl)ccc(C)c2F)n1-c1ccc(F)cc1 [Compound 627, 2-((6-Chloro-2-fluoro-3-methylbenzyl)thio)-N-ethyl-1-(4-fluorophenyl)-N-(pyridin-4-ylmethyl)-1H-imidazole-5-carboxamide]
100	Cc1nn(C)cc1CN(C)C(=O)c1cnc(SCc2nc3ccccc3o2)n1-c1ccc(F)cc1 [Compound 629, 2-((Benzo[d]oxazol-2-ylmethyl)thio)-N-((1,3-dimethyl-1H-pyrazol-4-yl)methyl)-1-(4-fluorophenyl)-N-methyl-1H-imidazole-5-carboxamide]
98	CCc1noc(CSc2ncc(C(=O)N(C)Cc3cn(C)nc3C)n2-c2ccc(F)cc2)n1 [Compound 630, N-((1,3-Dimethyl-1H-pyrazol-4-yl)methyl)-2-(((3-ethyl-1,2,4-oxadiazol-5-yl)methyl)thio)-1-(4-fluorophenyl)-N-methyl-1H-imidazole-5-carboxamide]
97	Cc1nn(C)cc1CN(C)C(=O)c1cnc(SCc2cc(C(C)C)no2)n1-c1ccc(F)cc1 [Compound 631, N-((1,3-Dimethyl-1H-pyrazol-4-yl)methyl)-1-(4-fluorophenyl)-2-(((3-isopropylisoxazol-5-yl)methyl)thio)-N-methyl-1H-imidazole-5-carboxamide]
100	Cc1nn(C)cc1CN(C)C(=O)c1cnc(SCc2cc3ccccn3n2)n1-c1ccc(F)cc1 [Compound 632, N-((1,3-Dimethyl-1H-pyrazol-4-yl)methyl)-1-(4-fluorophenyl)-N-methyl-2-((pyrazolo[1,5-a]pyridin-2-ylmethyl)thio)-1H-imidazole-5-carboxamide]
93	Cc1nn(C)cc1CN(C)C(=O)c1cnc(SCc2ccn(C)n2)n1-c1ccc(F)cc1 [Compound 633, N-((1,3-Dimethyl-1H-pyrazol-4-yl)methyl)-1-(4-fluorophenyl)-N-methyl-2-(((1-methyl-1H-pyrazol-3-yl)methyl)thio)-1H-imidazole-5-carboxamide]
91	Cc1nn(C)cc1CN(C)C(=O)c1cnc(SCc2ncn(C)n2)n1-c1ccc(F)cc1 [Compound 634, N-((1,3-Dimethyl-1H-pyrazol-4-yl)methyl)-1-(4-fluorophenyl)-N-methyl-2-(((1-methyl-1H-1,2,4-triazol-3-yl)methyl)thio)-1H-imidazole-5-carboxamide]
98	Cc1nn(C)cc1CN(C)C(=O)c1cnc(SCc2ncccn2)n1-c1ccc(F)cc1 [Compound 635, N-((1,3-Dimethyl-1H-pyrazol-4-yl)methyl)-1-(4-fluorophenyl)-N-methyl-2-((pyrimidin-2-ylmethyl)thio)-1H-imidazole-5-carboxamide]
98	Cc1csc(CSc2ncc(C(=O)N(C)Cc3cn(C)nc3C)n2-c2ccc(F)cc2)n1 [Compound 636, N-((1,3-Dimethyl-1H-pyrazol-4-yl)methyl)-1-(4-fluorophenyl)-N-methyl-2-(((4-methylthiazol-2-yl)methyl)thio)-1H-imidazole-5-carboxamide]
94	CCOC(=O)CSc1ncc(C(=O)N(C)Cc2cn(C)nc2C)n1-c1ccc(F)cc1 [Compound 637, Ethyl 2-((5-(((1,3-dimethyl-1H-pyrazol-4-yl)methyl)(methyl)carbamoyl)-1-(4-fluorophenyl)-1H-imidazol-2-yl)thio)acetate]
